Results: patent US10363239B2, “Method for inhibiting growth of cancer cells” (Pain Therapeutics, Inc., priority 2013, dated 2019)

What was measured:
more than 65 receptors = test: Standard binding assay on more than 65 receptors; settings: 10 μM concentration
MiaPaCa2 cells [1] = test: Cell proliferation by cell-cycling markers Ki67 and PCNA (Western blots); assay type: cell-based, human; settings: 0.1-5 nM; 4 days
Experimental: The effect of contact with Compound C0105 on cell proliferation was determined by the levels of cell-cycling markers Ki67 and PCNA using Western blots. Cells treated with vehicle and 0.1-5 nM C0105 for 4 days were collected, washed and solubilized (lysed). The resultant cell lysates were size-fractionated on SDS-PAGE and Western blotting to determine the levels of Ki67, PCNA and actin (loading control). The protein bands were quantified using densitometric scanning. […] N=4. *p<0.01 compared to vehicle (open bars).
To study the effect of Compound C0105 on PI3K activity, the cancer and primary normal cells were cultured to approximately 60-70% confluency, serum deprived for 4 hours, briefly washed with PBS and treated with vehicle or 0.1, 0.5, 1 or 5 nM Compound C0105 for 24 hours with in 0.1% FBS-containing culture medium. […] The cell pellets were sonicated in ice-cold immunoprecipitation buffer and protein concentrations measured by the Bradford method. […]
Immunoreactivity was visualized by reaction in ECL Plus chemiluminescent reagent for exactly 5 minutes, followed by immediate exposure of the blot to X-ray film (Z & Z Medical). Bands at the relevant molecular masses of Ki67 and PCNA were quantified by densitometric scan. Membranes were stripped, washed 5× in 0.1% PBST (2 minutes each) and the actin content analyzed by immunoblotting using monoclonal anti-actin to illustrate even loading.

MiaPaCa2 cells [2] = test: Blocking of compound effects with FLNA decoy pentapeptide VAKGL or control peptide VAAGL; assay type: cell-based, human; settings: 4 days
Experimental: FIGS. 32A-32D illustrate Western blots of pS^2152FLNA, Ras-GAP, PP2A-Aα/β, PTEN and FLNA in FIG. 32A and Ki67, PCNA and actin in FIG. 32C after four days of incubation (contact) of MiaPaCa2 cells in the presence of medium alone, or medium containing 1 nM Compound C0105 with and without the presence of 10 μM peptide VAAGL (SEQ ID NO: 2) or peptide VAKGL (SEQ ID NO: 1). Densitometric quantification of the Western blot results are shown in the graphs of FIG. 32B for the amounts of pS^2152FLNA, Ras-GAP, PP2A-Aα/β and PTEN in anti-FLNA immunoprecipitates and the amounts of Ki76 and PCNA (normalized by actin) in FIG. 32D. N=4, *p<0.01.
To confirm that Compound C0105 effects are mediated by binding to FLNA pentapeptide VAKGL (SEQ ID NO: 1), cancer cells were incubated with vehicle or 1 nM Compound C0105 together with 10 μM of decoy pentapeptide (VAKGL) or control peptide, VAAGL (K-A decoy peptide; SEQ ID NO: 2) for 4 days as described previously.
Cells were harvested by centrifugation and solubilized, and lysates were immunoprecipitated with anti-FLNA. Levels of pS^2152FLNA, PTEN, PP2A-Aα, PP2A-Aβ and Ras-GAP in the anti-FLNA immunoprecipitates were determined by Western blotting.
A separate series of studies was undertaken to determine whether Compound C0105's reduction in proliferation markers is also mediated by Compound C0105 binding to the pentapeptide region of FLNA. As above, cancer cells were incubated for 4 days with vehicle or 1 nM Compound C0105 together with 10 μM of decoy pentapeptide (VAKGL; SEQ ID NO: 1) or control peptide, VAAGL (SEQ ID NO: 2).
Cells were harvested by centrifugation and the resultant cell pellets were washed and sonicated in ice-cold immunoprecipitation buffer. Protein concentrations were measured by the Bradford method. […] Fifty μl of solubilized cell lysates were separated using SDS-PAGE, the protein bands electrophoretically transferred to nitrocellulose membranes and the level of cell proliferation was determined by Western blotting using the levels of Ki67 and PCNA as described previously.

FLNA from HPECs = biological target: T1, FLNA from HPECs (Homo sapiens, UniProt P21333); test: Isoelectric focusing of purified FLNA (FLNA conformation); assay type: cell-based; settings: 1 nM; 4 days
T1 construct: FLNA was purified separately from MiaPaCa2 cells and from HPECs; endogenous in cells; host or cells: primary human pancreatic epithelial cells (HPEC)
T1 sequence (P21333 whole entry): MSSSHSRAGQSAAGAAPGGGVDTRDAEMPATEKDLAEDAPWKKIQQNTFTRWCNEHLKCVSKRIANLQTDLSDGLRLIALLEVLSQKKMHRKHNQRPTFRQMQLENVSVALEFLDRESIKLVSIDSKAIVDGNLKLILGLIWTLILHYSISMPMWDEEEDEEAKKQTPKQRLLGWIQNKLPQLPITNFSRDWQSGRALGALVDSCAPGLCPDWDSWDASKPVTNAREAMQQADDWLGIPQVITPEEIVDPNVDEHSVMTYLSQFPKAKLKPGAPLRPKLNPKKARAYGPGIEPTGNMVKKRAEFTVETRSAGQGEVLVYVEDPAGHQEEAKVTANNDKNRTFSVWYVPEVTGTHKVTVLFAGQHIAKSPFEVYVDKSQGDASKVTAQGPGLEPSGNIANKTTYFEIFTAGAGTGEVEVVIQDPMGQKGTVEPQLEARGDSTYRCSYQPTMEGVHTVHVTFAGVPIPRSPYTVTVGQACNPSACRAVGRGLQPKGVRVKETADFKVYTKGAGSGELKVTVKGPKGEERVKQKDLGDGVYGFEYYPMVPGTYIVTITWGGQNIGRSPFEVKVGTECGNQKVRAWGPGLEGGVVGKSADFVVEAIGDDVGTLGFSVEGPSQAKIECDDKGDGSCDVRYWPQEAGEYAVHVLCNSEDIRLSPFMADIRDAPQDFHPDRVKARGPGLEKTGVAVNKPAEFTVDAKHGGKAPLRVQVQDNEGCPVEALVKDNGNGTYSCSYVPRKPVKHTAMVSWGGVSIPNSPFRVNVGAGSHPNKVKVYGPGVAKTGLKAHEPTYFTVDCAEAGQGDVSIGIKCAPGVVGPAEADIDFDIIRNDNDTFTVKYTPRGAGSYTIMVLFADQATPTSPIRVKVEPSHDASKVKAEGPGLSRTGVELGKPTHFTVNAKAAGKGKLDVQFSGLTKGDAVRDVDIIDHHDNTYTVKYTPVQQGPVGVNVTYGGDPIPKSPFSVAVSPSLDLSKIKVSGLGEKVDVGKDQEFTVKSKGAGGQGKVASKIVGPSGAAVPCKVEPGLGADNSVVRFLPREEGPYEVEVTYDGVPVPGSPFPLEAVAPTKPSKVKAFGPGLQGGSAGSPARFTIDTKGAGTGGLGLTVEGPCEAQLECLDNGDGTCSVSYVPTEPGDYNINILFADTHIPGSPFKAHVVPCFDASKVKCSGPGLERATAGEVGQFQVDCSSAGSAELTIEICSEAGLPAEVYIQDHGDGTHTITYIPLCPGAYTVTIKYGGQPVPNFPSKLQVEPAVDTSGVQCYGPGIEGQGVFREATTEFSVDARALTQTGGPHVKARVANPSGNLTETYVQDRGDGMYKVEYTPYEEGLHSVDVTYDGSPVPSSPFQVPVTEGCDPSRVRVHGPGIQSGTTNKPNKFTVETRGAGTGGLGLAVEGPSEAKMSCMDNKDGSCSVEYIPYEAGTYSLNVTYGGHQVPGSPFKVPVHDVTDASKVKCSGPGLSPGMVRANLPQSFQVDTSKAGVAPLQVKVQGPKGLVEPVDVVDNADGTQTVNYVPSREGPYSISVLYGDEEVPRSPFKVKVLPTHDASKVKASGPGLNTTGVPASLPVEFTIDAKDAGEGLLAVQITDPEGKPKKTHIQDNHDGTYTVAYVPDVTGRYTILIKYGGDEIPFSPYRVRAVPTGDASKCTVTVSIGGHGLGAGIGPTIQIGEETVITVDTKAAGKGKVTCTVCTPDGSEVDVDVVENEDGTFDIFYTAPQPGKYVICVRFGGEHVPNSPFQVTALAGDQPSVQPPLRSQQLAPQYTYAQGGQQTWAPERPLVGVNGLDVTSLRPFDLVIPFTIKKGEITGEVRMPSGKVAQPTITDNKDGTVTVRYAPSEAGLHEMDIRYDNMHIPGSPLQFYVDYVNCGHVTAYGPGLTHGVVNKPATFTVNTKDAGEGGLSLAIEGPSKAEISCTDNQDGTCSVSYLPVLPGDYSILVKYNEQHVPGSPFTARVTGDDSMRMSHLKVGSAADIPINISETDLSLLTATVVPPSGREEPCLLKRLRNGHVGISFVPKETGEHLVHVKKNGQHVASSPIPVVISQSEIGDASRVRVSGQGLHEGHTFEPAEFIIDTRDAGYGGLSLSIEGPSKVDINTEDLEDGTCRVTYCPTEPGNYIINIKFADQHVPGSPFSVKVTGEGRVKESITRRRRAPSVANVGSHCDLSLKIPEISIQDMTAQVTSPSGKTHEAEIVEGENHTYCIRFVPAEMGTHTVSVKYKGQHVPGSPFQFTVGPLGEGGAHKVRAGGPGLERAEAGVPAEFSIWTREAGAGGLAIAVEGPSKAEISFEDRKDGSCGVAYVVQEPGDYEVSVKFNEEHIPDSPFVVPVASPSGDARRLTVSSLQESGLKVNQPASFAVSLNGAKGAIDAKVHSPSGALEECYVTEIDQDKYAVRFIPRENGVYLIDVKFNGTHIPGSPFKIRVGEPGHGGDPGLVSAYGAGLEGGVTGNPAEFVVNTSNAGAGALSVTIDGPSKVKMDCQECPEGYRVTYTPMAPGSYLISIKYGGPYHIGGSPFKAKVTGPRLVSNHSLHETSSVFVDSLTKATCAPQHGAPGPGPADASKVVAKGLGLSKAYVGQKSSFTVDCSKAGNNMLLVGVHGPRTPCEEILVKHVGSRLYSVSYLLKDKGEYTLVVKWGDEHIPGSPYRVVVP
Experimental: FIGS. 33A and 33B show isoelectric focusing result data (FIG. 33A) for FLNA separately isolated from HPEC and MiaPaCa2 cells after four days of incubation (contact) of those cells with medium alone or medium plus 1 nM Compound C0105. […] N=4, *p<0.01.
To determine whether the conformation of FLNA is different in cancer and primary normal cells and whether Compound C0105 affects FLNA conformation, FLNA was purified from cancer and primary cells after incubation with vehicle or 1 nM Compound C0105 for 4 days. Cells were washed with PBS, scraped, sonicated for 10 seconds and solubilized using 0.5% digitonin/0.2% sodium cholate/0.5% NP-40 at 4° C. with end-over-end rotation for 1 hour. Following centrifugation to remove insoluble debris, the obtained lysate was treated with 1% SDS for 1 minute to dissociate the […] proteins, diluted 10-fold with immunoprecipitation buffer, and immunopurified with immobilized anti-FLNA. The resultant FLNA was eluted using 200 μl antigen-elution buffer (Thermo), neutralized immediately with 100 mM Tris HCl (pH9.0), diluted to 500 μl with 50 mM Tris HCl, pH7.5, and passed through a 100 kD cut-off filter.
The purified FLNA was suspended in the 100 μl isoelectric focusing sample buffer. […]

CN1CCC2(CC1)NCC(=O)N2Cc1ccccc1 [Compound C0105]
Binding to any of more than 65 assayed receptors (more than 65 receptors): no significant binding
Cell proliferation (Ki67 and PCNA levels) (MiaPaCa2 cells [1]): reduces cell proliferation
Effect on pS2152FLNA and FLNA associations when co-incubated with control peptide VAAGL (MiaPaCa2 cells [2]; 1 nM compound + 10 μM VAAGL (SEQ ID NO: 2)): did not disrupt Compound C0105 effects
Effect on pS2152FLNA and FLNA associations when co-incubated with VAKGL decoy pentapeptide (MiaPaCa2 cells [2]; 1 nM compound + 10 μM VAKGL (SEQ ID NO: 1)): lost its effect on pS^2152FLNA hyperphosphorylation and on FLNA associations with ras-GAP, PTEN and PP2A
Reduction in cell proliferation (Ki67, PCNA) when co-incubated with VAKGL decoy pentapeptide (MiaPaCa2 cells [2]; 1 nM compound + 10 μM VAKGL): disrupted Compound C0105's reduction in cell proliferation
pI of FLNA (FLNA from HPECs): no effect on the pI
